The values below are quoted from earlier work in PubChem BioAssay AID1259409 (Chemical Carcinogenesis Research Information System (CCRIS), 2018).

The series relates to rodent chemically induced tumor inhibition, incidence and multiplicity. As to the kind of experiment: CCRIS tumor inhibitor studies. Particulars: Promoter: NONE USED.

SMILES strings stand for the structures.

Regarding `CC/C(=C(\c1ccccc1)c1ccc(OCCN(C)C)cc1)c1ccccc1`, the “tumour outcome (control, treated, inhibition, significance)” value is, setting by setting: (Carcinogen: N-METHYL-N-NITROSOUREA, 684-93-5, Dose [Inhibitor]: 50 UG DISSOLVED IN SMALL VOLUME OF ETHANOL AND DILUTED IN 1% GELATIN-0.9% NACL TO INJECTION VOLUME OF 0.2 ML, DAILY STAR, Route [Inhibitor]: INJECTION, Species: RAT, Strain/Sex: SPRAGUE-DAWLEY/FEMALE, Target Tissue: Type of Lesion: MAMMARY GLAND: TUMOR, Dose [Carcinogen]: 5 MG/100 G BW AT 0, 4 AND 8 WK OF STUDY STARTING SIMULTANEOUSLY WITH AGENT TREATMENT) 86%, 9%, 90%, not calculated; (Carcinogen: N-NITROSO-N-METHYLUREA, 684-93-5, Dose [Inhibitor]: 0, 0.5 MG/KG OF DIET FOR 3 MO BEGINNING 1 WK POST CARCINOGEN DOSE (STUDY DURATION: 100 D), Route [Inhibitor]: ORAL, Species: RAT, Strain/Sex: SPRAGUE-DAWLEY/FEMALE, Target Tissue: Type of Lesion: MAMMARY GLAND: TUMOR, Dose [Carcinogen]: 50 MG/KG BW ONCE) 100%, 75%, 25%, p=0.03; (Carcinogen: N-NITROSO-N-METHYLUREA, 684-93-5, Dose [Inhibitor]: 0, 0.5 MG/KG OF DIET FOR 4.5 MO BEGINNING 1 WK POST CARCINOGEN DOSE (STUDY DURATION: 100 D), Route [Inhibitor]: ORAL, Species: RAT, Strain/Sex: SPRAGUE-DAWLEY/FEMALE, Target Tissue: Type of Lesion: MAMMARY GLAND: TUMOR, Dose [Carcinogen]: 50 MG/KG BW ONCE) 96%, 50%, 48%, p=0.003; (Carcinogen: N-NITROSO-N-METHYLUREA, 684-93-5, Dose [Inhibitor]: 0, 1 MG/KG OF DIET FOR 4.5 MO BEGINNING 1 WK POST CARCINOGEN DOSE (STUDY DURATION: 100 D), Route [Inhibitor]: ORAL, Species: RAT, Strain/Sex: SPRAGUE-DAWLEY/FEMALE, Target Tissue: Type of Lesion: MAMMARY GLAND: TUMOR, Dose [Carcinogen]: 50 MG/KG BW ONCE) 96%, 42%, 56%, p<0.001; (Carcinogen: NONE USED, Dose [Inhibitor]: 0, 125 UG/D FROM SUSTAINED RELEASE SILASTIC CAPSULES ADMINISTERED TO OVARIECTOMIZED MICE FOR 17 MO BEGINNING AT 3 MO OF, Route [Inhibitor]: IMPLANT, Species: MOUSE, Strain/Sex: C3H/OUJ/FEMALE, Target Tissue: Type of Lesion: MAMMARY GLAND: TUMOR) 50%, 22%, 56%, p<0.003; (Carcinogen: NONE USED, Dose [Inhibitor]: 0, 125 UG/D FROM SUSTAINED RELEASE SILASTIC CAPSULES FOR 3 MO BEGINNING AT 4 MO OF AGE (STUDY DURATION: 18 MO), Route [Inhibitor]: IMPLANT, Species: MOUSE, Strain/Sex: C3H/OUJ/FEMALE, Target Tissue: Type of Lesion: MAMMARY GLAND: TUMOR) 100%, 20%, 80%, p<0.001. The “tumour outcome (control, treated, inhibition, significance)” value is 100%, 26%, 74%, p<0.001 (Carcinogen: NONE USED, Dose [Inhibitor]: 0, 125 UG/D FROM SUSTAINED RELEASE SILASTIC CAPSULES FOR 6 MO BEGINNING AT 3 MO OF AGE (STUDY DURATION: 18 MO), Route [Inhibitor]: IMPLANT, Species: MOUSE, Strain/Sex: C3H/OUJ/FEMALE, Target Tissue: Type of Lesion: MAMMARY GLAND: TUMOR); 100%, 24%, 76%, p<0.001 (Carcinogen: NONE USED, Dose [Inhibitor]: 0, 125 UG/D FROM SUSTAINED RELEASE SILASTIC CAPSULES FOR 12 MO BEGINNING AT 3 MO OF AGE (STUDY DURATION: 18 MO), Route [Inhibitor]: IMPLANT, Species: MOUSE, Strain/Sex: C3H/OUJ/FEMALE, Target Tissue: Type of Lesion: MAMMARY GLAND: TUMOR); 100%, 20%, 80%, p<0.003 (Carcinogen: NONE USED, Dose [Inhibitor]: 0, 125 UG/D FROM SUSTAINED RELEASE SILASTIC CAPSULES FOR 17 MO BEGINNING AT 3 MO OF AGE (STUDY DURATION: 27 MO), Route [Inhibitor]: IMPLANT, Species: MOUSE, Strain/Sex: C3H/OUJ/FEMALE, Target Tissue: Type of Lesion: MAMMARY GLAND: TUMOR); 100%, 92%, 8%, not significant (Carcinogen: PROGESTERONE, 57-83-0, Dose [Inhibitor]: 0, 125 UG/D FROM SUSTAINED RELEASE SILASTIC CAPSULES FOR 3 MO PRIOR TO CARCINOGEN TREATMENT (STUDY DURATION: 18 MO), Route [Inhibitor]: IMPLANT, Species: MOUSE, Strain/Sex: C3H/OUJ/FEMALE, Target Tissue: Type of Lesion: MAMMARY GLAND: TUMOR, Dose [Carcinogen]: 20 MG ADMINISTERED IN SUSTAINED RELEASE SILASTIC CAPSULES FOR A ONE MO DURATION EVERY OTHER MO); 100%, 52%, 48%, p<0.002 (Carcinogen: PROGESTERONE, 57-83-0, Dose [Inhibitor]: 0, 125 UG/D FROM SUSTAINED RELEASE SILASTIC CAPSULES FOR 6 MO PRIOR TO CARCINOGEN TREATMENT (STUDY DURATION: 18 MO), Route [Inhibitor]: IMPLANT, Species: MOUSE, Strain/Sex: C3H/OUJ/FEMALE, Target Tissue: Type of Lesion: MAMMARY GLAND: TUMOR, Dose [Carcinogen]: 20 MG ADMINISTERED IN SUSTAINED RELEASE SILASTIC CAPSULES FOR A ONE MO DURATION EVERY OTHER MO); 100%, 88%, 12%, not significant (Carcinogen: PROGESTERONE, 57-83-0, Dose [Inhibitor]: 0, 125 UG/D FROM SUSTAINED RELEASE SILASTIC CAPSULES FOR 12 MO BEGINNING AT 3 MO OF AGE (STUDY DURATION: 21 MO), Route [Inhibitor]: IMPLANT, Species: MOUSE, Strain/Sex: C3H/OUJ/FEMALE, Target Tissue: Type of Lesion: MAMMARY GLAND: TUMOR, Dose [Carcinogen]: 20 MG ADMINISTERED IN SUSTAINED RELEASE SILASTIC CAPSULES GIVEN FOR A ONE MONTH DURATION EVERY OTHER MO BEGINNING AT 3 M). Further, the “tumour outcome (control, treated, inhibition, significance)” value reads like this: (Carcinogen: SUBCUTANEOUS IMPLANT, Dose [Inhibitor]: ZERANOL, 26538-44-3, Route [Inhibitor]: 0, 5 MG 2/WK TO DAY 32 THEN 1/WK TO DAY 202 (STUDY DURATION: 202 D), Species: HAMSTER, Strain/Sex: SUBCUTANEOUS, Target Tissue: Type of Lesion: LIVER: HEPATOCELLULAR ADENOMA, Dose [Carcinogen]: NONE USED) 56%, 0%, 100%, not calculated; (Carcinogen: ZERANOL, 26538-44-3, Dose [Inhibitor]: 0, 5 MG 2/WK TO DAY 32 THEN 1/WK TO DAY 202 (STUDY DURATION: 202 D), Route [Inhibitor]: SUBCUTANEOUS, Species: HAMSTER, Strain/Sex: ARMENIAN/FEMALE, Target Tissue: Type of Lesion: LIVER: HEPATOCELLULAR ADENOMA, Dose [Carcinogen]: 36 MG IMPLANTED ON DAYS 0 AND 94) 57%, 0%, 100%, not calculated; (Carcinogen: ZERANOL, 26538-44-3, Dose [Inhibitor]: 0, 5 MG 2/WK TO DAY 32 THEN 1/WK TO DAY 202 (STUDY DURATION: 202 D), Route [Inhibitor]: SUBCUTANEOUS, Species: HAMSTER, Strain/Sex: ARMENIAN/FEMALE, Target Tissue: Type of Lesion: LIVER: HEPATOCELLULAR CARCINOMA, Dose [Carcinogen]: 36 MG IMPLANTED ON DAYS 0 AND 94) 6/7 (86%), 0/4 (0%), 100%, not calculated; (Carcinogen: ZERANOL, 26538-44-3, Dose [Inhibitor]: 0, 5 MG 2/WK TO DAY 32 THEN 1/WK TO DAY 202 (STUDY DURATION: 202 D), Route [Inhibitor]: SUBCUTANEOUS, Species: HAMSTER, Strain/Sex: ARMENIAN/MALE, Target Tissue: Type of Lesion: LIVER: HEPATOCELLULAR CARCINOMA, Dose [Carcinogen]: 36 MG IMPLANTED ON DAYS 0 AND 94) 3/9 (33%), 0/4 (0%), 100%, not calculated.
